Data reported in US20210254056A1, “IDENTIFICATION AND TARGETED MODULATION OF GENE SIGNALING NETWORKS” (CAMP4 THERAPEUTICS CORPORATION, priority 2017, published 2021).

Test system: hepatocytes
Experiment: RNA-seq of hepatocytes treated with Phase III failure compounds
Details: hepatocytes
Experimental: RNA-seq was performed to determine the effects of the compounds on hepatocytes.
Significance was determined by the criteria of FPKM≥0.5, a log 2(fold-change)≥1, and a […].

For `CCC(CC)[C@H](NC(C)=O)[C@@H]1[C@H](O)[C@@H](C(=O)O)C[C@H]1NC(=N)N.O.O.O` [peramivir (trihydrate), peramivir], the “RNA-seq results, GPD1 expression” value (gene GPD1) was 0.37, the “RNA-seq results: GPD1 expression” value (gene GPD1) was 0 and the “RNA-seq results, GPHN expression” value (gene GPHN) was −0.14. The “RNA-seq results: GPHN expression” value (gene GPHN) was 0.06, the “RNA-seq results, GTPBP3 expression” value (gene GTPBP3) was 0.32 and the “RNA-seq results: GTPBP3 expression” value (gene GTPBP3) was 0.07. The “RNA-seq results, GUSB expression” value (gene GUSB) was −0.26, the “RNA-seq results: GUSB expression” value (gene GUSB) was 0.23 and the “RNA-seq results, GYG1 expression” value (gene GYG1) was −0.32. For the same molecule, the “RNA-seq results: GYG1 expression” value (gene GYG1) was 0.02, the “RNA-seq results, GYS1 expression” value (gene GYS1) was 0.05 and the “RNA-seq results: GYS1 expression” value (gene GYS1) was 0.12. For the same molecule, the “RNA-seq results, GYS2 expression” value (gene GYS2) was −0.03, the “RNA-seq results: GYS2 expression” value (gene GYS2) was −0.13 and the “RNA-seq results, H6PD expression” value (gene H6PD) was 0.18. The “RNA-seq results: H6PD expression” value (gene H6PD) was −0.01, the “RNA-seq results, H19 expression” value (gene H19) was −0.21 and the “RNA-seq results: H19 expression” value (gene H19) was 0.34. For the same molecule, the “RNA-seq results, HAL expression” value (gene HAL) was −0.09, the “RNA-seq results: HAL expression” value (gene HAL) was −0.17 and the “RNA-seq results, HAX1 expression” value (gene HAX1) was −0.12. For the same molecule, the “RNA-seq results: HAX1 expression” value (gene HAX1) was 0.15, the “RNA-seq results, HBA1 expression” value (gene HBA1) was 1.07 and the “RNA-seq results: HBA1 expression” value (gene HBA1) was 0.04. The “RNA-seq results, HBB expression” value (gene HBB) was 0.07, the “RNA-seq results: HBB expression” value (gene HBB) was −0.54 and the “RNA-seq results, HGD expression” value (gene HGD) was −0.10. For the same molecule, the “RNA-seq results: HGD expression” value (gene HGD) was −0.18, the “RNA-seq results, HLA-B expression” value (gene HLA-B) was 0.05 and the “RNA-seq results: HLA-B expression” value (gene HLA-B) was 0.18. For the same molecule, the “RNA-seq results, HMBS expression” value (gene HMBS) was −0.09, the “RNA-seq results: HMBS expression” value (gene HMBS) was 0 and the “RNA-seq results, HMGCR expression” value (gene HMGCR) was −0.11. The “RNA-seq results: HMGCR expression” value (gene HMGCR) was −0.29, the “RNA-seq results, HMGCS2 expression” value (gene HMGCS2) was −0.21 and the “RNA-seq results: HMGCS2 expression” value (gene HMGCS2) was −0.28. The “RNA-seq results, HMOX1 expression” value (gene HMOX1) was 0.22, the “RNA-seq results: HMOX1 expression” value (gene HMOX1) was 1.28 and the “RNA-seq results, HNF1A expression” value (gene HNF1A) was 0.33. The “RNA-seq results: HNF1A expression” value (gene HNF1A) was 0.11, the “RNA-seq results, HNF1B expression” value (gene HNF1B) was −0.02 and the “RNA-seq results: HNF1B expression” value (gene HNF1B) was −0.15. For the same molecule, the “RNA-seq results, HNF4A expression” value (gene HNF4A) was 0.30, the “RNA-seq results: HNF4A expression” value (gene HNF4A) was −0.01 and the “RNA-seq results, HOGA1 expression” value (gene HOGA1) was 0.80. The “RNA-seq results: HOGA1 expression” value (gene HOGA1) was 0.01, the “RNA-seq results, HPD expression” value (gene HPD) was 0.10 and the “RNA-seq results: HPD expression” value (gene HPD) was 0.06. For the same molecule, the “RNA-seq results, HPGD expression” value (gene HPGD) was −0.69, the “RNA-seq results: HPGD expression” value (gene HPGD) was −0.7 and the “RNA-seq results, HPS4 expression” value (gene HPS4) was −0.04. The “RNA-seq results: HPS4 expression” value (gene HPS4) was 0.26, the “RNA-seq results, HPS5 expression” value (gene HPS5) was −0.12 and the “RNA-seq results: HPS5 expression” value (gene HPS5) was −0.18. For the same molecule, the “RNA-seq results, HPS6 expression” value (gene HPS6) was 0.31, the “RNA-seq results: HPS6 expression” value (gene HPS6) was 0.23 and the “RNA-seq results, HPX expression” value (gene HPX) was −0.17. The “RNA-seq results: HPX expression” value (gene HPX) was 0.2, the “RNA-seq results, HRAS expression” value (gene HRAS) was −0.15 and the “RNA-seq results: HRAS expression” value (gene HRAS) was 0.31. For the same molecule, the “RNA-seq results, HRSP12 expression” value (gene HRSP12) was −0.47, the “RNA-seq results: HRSP12 expression” value (gene HRSP12) was −0.3 and the “RNA-seq results, HSD3B7 expression” value (gene HSD3B7) was −0.05. The “RNA-seq results: HSD3B7 expression” value (gene HSD3B7) was 0.26, the “RNA-seq results, HSD17B10 expression” value (gene HSD17B10) was −0.09 and the “RNA-seq results: HSD17B10 expression” value (gene HSD17B10) was 0.15. The “RNA-seq results: HYLS1 expression” value (gene HYLS1) was −0.60, the “RNA-seq results: ID1 expression” value (gene ID1) was 0.13 and the “RNA-seq results: IDH1 expression” value (gene IDH1) was −0.29. The “RNA-seq results: IDH2 expression” value (gene IDH2) was −0.11, the “RNA-seq results: IDUA expression” value (gene IDUA) was 0.23 and the “RNA-seq results: IFIH1 expression” value (gene IFIH1) was −0.40. For the same molecule, the “RNA-seq results: IFNAR2 expression” value (gene IFNAR2) was −0.51, the “RNA-seq results: IFT27 expression” value (gene IFT27) was −0.11 and the “RNA-seq results: IFT80 expression” value (gene IFT80) was 0.00. The “RNA-seq results: IFT122 expression” value (gene IFT122) was −0.15, the “RNA-seq results: IFT140 expression” value (gene IFT140) was 0.44 and the “RNA-seq results: IFT172 expression” value (gene IFT172) was 0.36. The “RNA-seq results: IGFALS expression” value (gene IGFALS) was 0.33, the “RNA-seq results: IKBKG expression” value (gene IKBKG) was 0.48 and the “RNA-seq results: IL1RN expression” value (gene IL1RN) was −0.20. For the same molecule, the “RNA-seq results: IL2RG expression” value (gene IL2RG) was −0.08, the “RNA-seq results: INSR expression” value (gene INSR) was 0.01 and the “RNA-seq results: INVS expression” value (gene INVS) was −0.15. For the same molecule, the “RNA-seq results: ISYNA1 expression” value (gene ISYNA1) was 0.20, the “RNA-seq results: ITGB3 expression” value (gene ITGB3) was 0.02 and the “RNA-seq results: IYD expression” value (gene IYD) was −0.15. For the same molecule, the “RNA-seq results: JAG1 expression” value (gene JAG1) was 0.14, the “RNA-seq results: JAK2 expression” value (gene JAK2) was −0.26 and the “RNA-seq results: KCTD7 expression” value (gene KCTD7) was 0.26. The “RNA-seq results: KCTD11 expression” value (gene KCTD11) was 0.53, the “RNA-seq results: KHK expression” value (gene KHK) was 0.13 and the “RNA-seq results: KIAA0586 expression” value (gene KIAA0586) was −0.32. For the same molecule, the “RNA-seq results: KMT2D expression” value (gene KMT2D) was 0.57, the “RNA-seq results: KPTN expression” value (gene KPTN) was 0.03 and the “RNA-seq results: KRIT1 expression” value (gene KRIT1) was −0.32. The “RNA-seq results: KRT18 expression” value (gene KRT18) was 0.14, the “RNA-seq results: KYNU expression” value (gene KYNU) was −0.28 and the “RNA-seq results: LAMB2 expression” value (gene LAMB2) was 0.14. The “RNA-seq results: LCAT expression” value (gene LCAT) was 0.18, the “RNA-seq results: LDHB expression” value (gene LDHB) was −0.23 and the “RNA-seq results: LDLR expression” value (gene LDLR) was 0.23. For the same molecule, the “RNA-seq results: LDLRAP1 expression” value (gene LDLRAP1) was 0.03, the “RNA-seq results: LIPC expression” value (gene LIPC) was −0.23 and the “RNA-seq results: LIPT1 expression” value (gene LIPT1) was −0.63. For the same molecule, the “RNA-seq results: LMNB2 expression” value (gene LMNB2) was 0.36, the “RNA-seq results: LPA expression” value (gene LPA) was 0.04 and the “RNA-seq results: LPIN1 expression” value (gene LPIN1) was −0.08. For the same molecule, the “RNA-seq results: LPIN2 expression” value (gene LPIN2) was 0.08, the “RNA-seq results: LRBA expression” value (gene LRBA) was −0.14 and the “RNA-seq results: LRP5 expression” value (gene LRP5) was 0.14. The “RNA-seq results: LYRM4 expression” value (gene LYRM4) was −0.40, the “RNA-seq results: LYST expression” value (gene LYST) was −0.05 and the “RNA-seq results: MAN1A1 expression” value (gene MAN1A1) was −0.36. For the same molecule, the “RNA-seq results: MAN2B1 expression” value (gene MAN2B1) was 0.14, the “RNA-seq results: MAOB expression” value (gene MAOB) was −0.07 and the “RNA-seq results: MAT1A expression” value (gene MAT1A) was 0.14. The “RNA-seq results: MBL2 expression” value (gene MBL2) was −0.25.
